Source: article PMC12002099, “Recombinant Production and Characterization of Six Ene‐reductases from Penicillium steckii” (Chembiochem, 2025)

Assays:
PsOYE4 [1] = molecular target: T1, PsOYE4 (Penicillium steckii, UniProt A0A1V6TQX2); test: steady-state kinetics, NADPH consumption, Michaelis-Menten fit; assay type: biochemical; settings: co-substrate p-benzoquinone
T1 construct: gene PENSTE_c003G03501
Description: steady-state kinetics, NADPH consumption, Michaelis-Menten fit on PsOYE4

PsOYE4 [2] = molecular target: T1, PsOYE4; test: UV-Vis flavin spectrum of purified enzyme, FMN release on denaturation; assay type: binding; settings: co-purified cofactor
PsOYE1 = molecular target: T2, PsOYE1 (Penicillium steckii, UniProt A0A1V6T993); test: as above; assay type: binding; settings: co-purified cofactor
T2 construct: gene PENSTE_c009G01003
T2 sequence (A0A1V6T993 1-408): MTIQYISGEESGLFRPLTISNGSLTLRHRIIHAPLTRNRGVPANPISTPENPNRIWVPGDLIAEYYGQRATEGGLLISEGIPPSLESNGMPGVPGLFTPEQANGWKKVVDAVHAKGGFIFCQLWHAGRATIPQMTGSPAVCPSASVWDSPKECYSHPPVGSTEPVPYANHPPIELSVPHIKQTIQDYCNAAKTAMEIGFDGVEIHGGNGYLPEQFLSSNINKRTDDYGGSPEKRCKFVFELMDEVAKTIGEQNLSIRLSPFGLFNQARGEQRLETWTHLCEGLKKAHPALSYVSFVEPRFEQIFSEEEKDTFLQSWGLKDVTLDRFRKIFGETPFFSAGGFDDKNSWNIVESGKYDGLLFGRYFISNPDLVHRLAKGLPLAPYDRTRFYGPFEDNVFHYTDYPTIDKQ

PsOYE3 = molecular target: T3, PsOYE3 (Penicillium steckii, UniProt A0A1V6SNM3); test: as above; assay type: binding; settings: co-purified cofactor
T3 construct: gene PENSTE_c027G02138
T3 sequence (A0A1V6SNM3 1-421): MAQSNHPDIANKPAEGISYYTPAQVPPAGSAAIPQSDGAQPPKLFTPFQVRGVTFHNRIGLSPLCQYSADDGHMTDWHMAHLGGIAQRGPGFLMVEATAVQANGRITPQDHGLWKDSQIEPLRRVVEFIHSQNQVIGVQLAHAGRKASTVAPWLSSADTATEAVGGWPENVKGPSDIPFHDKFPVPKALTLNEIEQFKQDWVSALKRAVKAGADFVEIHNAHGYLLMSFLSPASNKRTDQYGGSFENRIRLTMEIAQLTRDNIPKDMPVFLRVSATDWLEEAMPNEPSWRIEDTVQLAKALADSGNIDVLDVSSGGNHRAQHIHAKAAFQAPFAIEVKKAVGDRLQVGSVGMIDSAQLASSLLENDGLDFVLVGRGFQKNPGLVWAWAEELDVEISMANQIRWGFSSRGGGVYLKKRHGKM

PsOYE2 = molecular target: T4, PsOYE2 (Penicillium steckii, UniProt A0A1V6SMJ6); test: X-ray crystal structure, […] Å; assay type: binding; settings: co-purified cofactor; site completed by adjacent protomer
T4 construct: gene PENSTE_c029G02105; tag-free, His-SUMO fusion cut off, expressed in E. coli; homodimer; residues 2-413 seen, C-terminus 414-422 not visible
T4 sequence (A0A1V6SMJ6 1-422): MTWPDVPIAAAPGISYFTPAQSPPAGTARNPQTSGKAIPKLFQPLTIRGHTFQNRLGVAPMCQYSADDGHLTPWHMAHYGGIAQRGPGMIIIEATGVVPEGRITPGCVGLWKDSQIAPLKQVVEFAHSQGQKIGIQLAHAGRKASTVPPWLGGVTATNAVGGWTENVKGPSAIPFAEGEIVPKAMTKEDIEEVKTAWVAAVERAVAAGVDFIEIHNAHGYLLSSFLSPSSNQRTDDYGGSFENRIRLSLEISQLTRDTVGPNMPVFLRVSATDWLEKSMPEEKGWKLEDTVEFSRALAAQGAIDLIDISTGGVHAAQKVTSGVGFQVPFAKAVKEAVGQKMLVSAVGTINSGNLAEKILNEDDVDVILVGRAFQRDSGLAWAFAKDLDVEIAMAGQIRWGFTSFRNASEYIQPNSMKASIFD

PsOYE6 = molecular target: T5, PsOYE6 (Penicillium steckii, UniProt A0A1V6SJW2); test: UV-Vis flavin spectrum of purified enzyme, FMN release on denaturation; assay type: binding; settings: co-purified cofactor
T5 construct: gene PENSTE_c042G09698
T5 sequence (A0A1V6SJW2 1-370): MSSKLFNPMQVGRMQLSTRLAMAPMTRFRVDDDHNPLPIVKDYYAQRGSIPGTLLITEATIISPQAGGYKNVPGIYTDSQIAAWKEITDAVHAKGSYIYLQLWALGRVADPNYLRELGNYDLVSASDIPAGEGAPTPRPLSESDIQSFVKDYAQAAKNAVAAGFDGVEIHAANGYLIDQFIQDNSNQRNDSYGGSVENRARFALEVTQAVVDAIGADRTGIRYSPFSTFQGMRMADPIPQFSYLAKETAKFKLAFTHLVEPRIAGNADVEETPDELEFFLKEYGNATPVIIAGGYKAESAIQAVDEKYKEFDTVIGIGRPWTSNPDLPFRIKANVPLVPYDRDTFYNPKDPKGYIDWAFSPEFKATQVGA

Structure (SMILES): NC(=O)C1=CN([C@@H]2O[C@H](COP(=O)(O)OP(=O)(O)OC[C@H]3O[C@@H](n4cnc5c(N)ncnc54)[C@H](OP(=O)(O)O)[C@@H]3O)[C@@H](O)[C@H]2O)C=CC1 [NADPH]
- Km (PsOYE4 [1]): 300 ± 100 µM

Structure (SMILES): Cc1cc2nc3c(=O)[nH]c(=O)nc-3n(C[C@H](O)[C@H](O)[C@H](O)COP(=O)(O)O)c2cc1C [FMN]
- UV-Vis flavin spectrum of purified enzyme, FMN release on denaturation (PsOYE4 [2]): Expression and subsequent purification led to reasonably high yields of pure, soluble, and FMN‐bound proteins
- UV-Vis flavin spectrum of purified enzyme, FMN release on denaturation (PsOYE1): Expression and subsequent purification led to reasonably high yields of pure, soluble, and FMN‐bound proteins
- UV-Vis flavin spectrum of purified enzyme, FMN release on denaturation (PsOYE3): Expression and subsequent purification led to reasonably high yields of pure, soluble, and FMN‐bound proteins
- X-ray crystal structure, 2.3 Å (PsOYE2): The FMN cofactor, situated on the C‐terminal side of the barrel, has interactions
- UV-Vis flavin spectrum of purified enzyme, FMN release on denaturation (PsOYE6): Expression and subsequent purification led to reasonably high yields of pure, soluble, and FMN‐bound proteins
